Reference: US5856435A, “Nucleic acid-containing composition, its preparation and use” (Rhone-Poulenc Rorer SA, priority 1994, dated 1999)
Converted amounts (≈) assume the structure as drawn. Residues, ends and D or L forms follow the SMILES beside them.

Assays:
[1] = study of the dichroic spectra: secondary structures adopted by the cationic oligopeptides; type: physicochemical
Description: The capacity of the oligopeptides to form secondary structures may be verified by circular dichroism or in NMR, as shown in the examples.
Moreover, as shown in the Table below, a study of the dichroic spectra enabled the secondary structures adopted by the cationic oligopeptides used, in solution or after complexing, to be confirmed.

[2] = Encapsulation of the nucleic acid INV-Val13 in nanoparticles of PLA50(30)-PEG(2)
Description: The nanoparticles used in this example are diblock copolymers consisting of a poly(D,L-lactic acid) linked via an ester bond to a poly(ethylene glycol): PLAp(M)-PEG(N) where M and N are, respectively, the average molecular masses (in kD) of the PLA and the PEG, and p is the percentage of L-lactic acid. The 2 types of nanoparticles used are PLA50(30)-PEG(2) and PLA50(30)-PEG(5). These copolymers may be synthesized by any technique known to a person skilled in the art (see, for example, EP 520,889).
The nucleic acids were treated with phage T4 polynucleotide kinase (Biolabs) in the presence of [γ-^32 P]ATP (Amersham) in a kinase buffer. After 30 min of incubation at 37° C., the nucleic acid was separated from unreacted ATP by application to a Sephadex G25 column (Quick Spin) and centrifugation.
This Example describes the encapsulation of the nucleic acid INV-Val13 in a nanoparticle of PLA50 (30)-PEG(2) in the presence or absence of oligopeptide (LKKL)10 (SEQ ID NO:6).
The polymer used, (PLA50(30)-PEG(2)), was solubilized in 1 ml of acetone at a concentration of 10 g/l. The isotopic dilution of the nucleic acid (final concentration 10^-5 M) was added, followed by the oligopeptide (at a concentration such that R=1). The organic solution obtained was then poured dropwise into 5 ml of an aqueous solution (50 mM Tris-HCl buffer pH 7.4) with stirring. […]

[3] = system: T24/EJ cell line originating from a human bladder carcinoma; assay: Transfer of nucleic acid into cells: inhibition of cell proliferation induced by the antisense nucleic acid; type: cell-based; conditions: naked, 30 μM, 72 or 96 hours of culture
Experimental: The tests of nucleic acid transfer described in this example were performed on a cell line originating from a human bladder carcinoma, designated T24/EJ, available in the ATCC. The cells were cultured in MEM-EAGLE medium ("minimum essential medium", Biological Industries) supplemented with L-glutamine ((5 mM), streptomycin (50 u/ml) and penicillin (50 u/ml) in the presence of 7% of foetal calf serum decomplemented for 30 min at 60° C.
The cells (1500/well) were inoculated into 96-well microplates, in the absence or presence of nucleic acid, encapsulated or otherwise in nanoparticles, in a total volume of 100 μl. Each point was performed in triplicate. […]
In the first place, the incorporation of tritiated thymidine, which was determined after adding 2 μCi of 3 H thymidine per well. After 6 hours of incubation in an incubator, the plates were washed with a Skatron apparatus (Lier, Norway), the DNA was collected on a filter and each disc of the filter (corresponding to each well of the plate) was placed in scintillation fluid and then counted in a counter (LKB Wallac 1211 Minibeta). […]
Next, cell proliferation was evaluated by counting the cells in a Malassez cell. For this purpose, the supernatant was removed, the cells were trypsinized (10 min at 37° C.) and culture medium was added to them before they were counted.

physchem = conditions: water
[4] = solubility of the oligopeptide in water
[5] = 50 mM phosphate buffer/0.2 M NaCl

Polylysine [reference compound]
conformation in saline solution [1]: not structured

3'-CACACCGACGGCG-5' (chemistry not given here; listed 3' to 5') [INV-Val13]
encapsulation yield of INV-Val13 in the nanoparticle ([2]; in the presence of oligopeptide (LKKL)10, R=1, nucleic acid 10^-5 M): 56% | encapsulation yield of INV-Val13 in the nanoparticle ([2]; without the oligopeptide, nucleic acid 10^-5 M): 5%

3'-CGCGGCAGCCAC-5' (chemistry not given here; listed 3' to 5') [AS-Val12]
inhibition of cell proliferation [3]: 42%

CC(C)C[C@H](NC(=O)[C@H](CCCCN)NC(=O)[C@H](CCCCN)NC(=O)[C@H](CC(C)C)NC(=O)[C@H](CC(C)C)NC(=O)[C@H](CCCCN)NC(=O)[C@H](CCCCN)NC(=O)[C@H](CC(C)C)NC(=O)[C@H](CC(C)C)NC(=O)[C@H](CCCCN)NC(=O)[C@H](CCCCN)NC(=O)[C@H](CC(C)C)NC(=O)[C@H](CC(C)C)NC(=O)[C@H](CCCCN)NC(=O)[C@H](CCCCN)NC(=O)[C@H](CC(C)C)NC(=O)[C@H](CC(C)C)NC(=O)[C@H](CCCCN)NC(=O)[C@H](CCCCN)NC(=O)[C@H](CC(C)C)NC(=O)[C@H](CC(C)C)NC(=O)[C@H](CCCCN)NC(=O)[C@H](CCCCN)NC(=O)[C@H](CC(C)C)NC(=O)[C@H](CC(C)C)NC(=O)[C@H](CCCCN)NC(=O)[C@H](CCCCN)NC(=O)[C@H](CC(C)C)NC(=O)[C@H](CC(C)C)NC(=O)[C@H](CCCCN)NC(=O)[C@H](CCCCN)NC(=O)[C@H](CC(C)C)NC(=O)[C@H](CC(C)C)NC(=O)[C@H](CCCCN)NC(=O)[C@H](CCCCN)NC(=O)[C@H](CC(C)C)NC(=O)[C@H](CC(C)C)NC(=O)[C@H](CCCCN)NC(=O)[C@H](CCCCN)NC(=O)[C@@H](N)CC(C)C)C(=O)O [(LKKL)10, (H)-(Leucine-Lysine-Lysine-Leucine)10 -(OH)] (H-LKKLLKKLLKKLLKKLLKKLLKKLLKKLLKKLLKKLLKKL-OH)
solubility (physchem): 50 mg/mL (≈ 10.3 mM) | secondary structure (dichroic spectra) ([1]; 50 mM phosphate buffer): α Helix | secondary structure (dichroic spectra) [1, 5]: α Helix | secondary structure (dichroic spectra) ([1]; Water/nucleic acid): α Helix | conformation in saline solution [1]: α-helical | conformation in water ([1]; water): unstructured | secondary structure (dichroic spectra) ([1]; water): unstructured

CC(C)C[C@H](NC(=O)[C@H](CCCCN)NC(=O)[C@H](CC(C)C)NC(=O)[C@H](CCCCN)NC(=O)[C@H](CC(C)C)NC(=O)[C@H](CCCCN)NC(=O)[C@H](CC(C)C)NC(=O)[C@H](CCCCN)NC(=O)[C@H](CC(C)C)NC(=O)[C@H](CCCCN)NC(=O)[C@H](CC(C)C)NC(=O)[C@H](CCCCN)NC(=O)[C@H](CC(C)C)NC(=O)[C@H](CCCCN)NC(=O)[C@H](CC(C)C)NC(=O)[C@H](CCCCN)NC(=O)[C@H](CC(C)C)NC(=O)[C@H](CCCCN)NC(=O)[C@H](CC(C)C)NC(=O)[C@H](CCCCN)NC(=O)[C@H](CC(C)C)NC(=O)[C@H](CCCCN)NC(=O)[C@H](CC(C)C)NC(=O)[C@H](CCCCN)NC(=O)[C@H](CC(C)C)NC(=O)[C@H](CCCCN)NC(=O)[C@H](CC(C)C)NC(=O)[C@H](CCCCN)NC(=O)[C@H](CC(C)C)NC(=O)[C@H](CCCCN)NC(=O)[C@H](CC(C)C)NC(=O)[C@H](CCCCN)NC(=O)[C@H](CC(C)C)NC(=O)[C@H](CCCCN)NC(=O)[C@H](CC(C)C)NC(=O)[C@H](CCCCN)NC(=O)[C@H](CC(C)C)NC(=O)[C@H](CCCCN)NC(=O)[C@@H](N)CC(C)C)C(=O)N[C@@H](CCCCN)C(=O)O [(LKLK)10, (H)-(Leucine-Lysine-Leucine-Lysine)10 -(OH)] (H-LKLKLKLKLKLKLKLKLKLKLKLKLKLKLKLKLKLKLKLK-OH)
secondary structure (dichroic spectra) ([1]; 50 mM phosphate buffer): β Sheet | secondary structure (dichroic spectra) [1, 5]: β Sheet | secondary structure (dichroic spectra) ([1]; Water/nucleic acid): β Sheet | conformation in saline solution [1]: β-sheet | conformation in water ([1]; water): unstructured | secondary structure (dichroic spectra) ([1]; water): unstructured | solubility [4]: 100 mg/mL (≈ 20.6 mM)

CC(C)C[C@H](NC(=O)[C@H](CCCCN)NC(=O)[C@H](CCCCN)NC(=O)[C@@H]1CCCN1C(=O)[C@H](CC(C)C)NC(=O)[C@H](CCCCN)NC(=O)[C@H](CCCCN)NC(=O)[C@@H]1CCCN1C(=O)[C@H](CC(C)C)NC(=O)[C@H](CCCCN)NC(=O)[C@H](CCCCN)NC(=O)[C@@H]1CCCN1C(=O)[C@H](CC(C)C)NC(=O)[C@H](CCCCN)NC(=O)[C@H](CCCCN)NC(=O)[C@@H]1CCCN1C(=O)[C@H](CC(C)C)NC(=O)[C@H](CCCCN)NC(=O)[C@H](CCCCN)NC(=O)[C@@H]1CCCN1C(=O)[C@H](CC(C)C)NC(=O)[C@H](CCCCN)NC(=O)[C@H](CCCCN)NC(=O)[C@@H]1CCCN1C(=O)[C@H](CC(C)C)NC(=O)[C@H](CCCCN)NC(=O)[C@H](CCCCN)NC(=O)[C@@H]1CCCN1C(=O)[C@H](CC(C)C)NC(=O)[C@H](CCCCN)NC(=O)[C@H](CCCCN)NC(=O)[C@@H]1CCCN1C(=O)[C@H](CC(C)C)NC(=O)[C@H](CCCCN)NC(=O)[C@H](CCCCN)NC(=O)[C@@H]1CCCN1C(=O)[C@H](CC(C)C)NC(=O)[C@H](CCCCN)NC(=O)[C@H](CCCCN)NC(=O)[C@@H]1CCCN1)C(=O)O [(PKKL)10, (H)-(Proline-Lysine-Lysine-Leucine)10 -(OH), reference compound] (H-PKKLPKKLPKKLPKKLPKKLPKKLPKKLPKKLPKKLPKKL-OH)
secondary structure (dichroic spectra) ([1]; 50 mM phosphate buffer): unstructured | secondary structure (dichroic spectra) [1, 5]: unstructured | secondary structure (dichroic spectra) ([1]; Water/nucleic acid): unstructured | conformation in saline solution [1]: not structured | secondary structure (dichroic spectra) ([1]; water): unstructured
